Literature values as cited in patent US20090312435A1, “SUBSTITUTED PHENETHYLAMINES WITH SEROTONINERGIC AND/OR NOREPINEPHRINERGIC ACTIVITY” (AUSPEX PHARMACEUTICALS, INC, priority 2006, published 2009).
“And” between values parts separate entries of the source, which are not always exact repeats. Equal entries are not always repeated. Where two headings read alike, the source gives them in different places.

SMILES	half-life (T1/2) (human, in vivo) [h]	half-life (T1/2) (in humans)
CN(C)CC(c1ccc(O)cc1)C1(O)CCCCC1 (centres unmarked) [O-desmethylvenlafaxine]	~11	–
COc1ccc(C(CN(C)C)C2(O)CCCCC2)cc1 (racemic) [venlafaxine]	–	~5 h and 3 to 7 h
